Results: patent US8637664B2, “Alkyl 4- [4- (5-oxo-2,3,5, 11a-tetrahydo-5H-pyrrolo [2, 1-c] [1,4] benzodiazepine-8-yloxy)-butyrylamino]-1H-pyrrole-2-carboxylate derivatives and related compounds for the treatment of a proliferative disease” (Spirogen SARL, priority 2005, dated 2014)
Where two headings read alike, the source gives them in different places. Marks after values point to notes of the source that are not given here.

Legend:
[1] = biological target: 262 bp DNA fragment (MS2F or MS2R) of MS2 plasmid; assay: DNase I footprinting on MS2 DNA fragment; format: binding
Description: The sequence selectivity of the six PBD-pyrrole conjugates (21, 23, 25, 27, 29) was evaluated by standard DNA footprinting on a fragment of MS2 as follows, in accordance with the technique described in Martin, C., et al., (Martin, C., et al., Biochemistry, 44(11), 4135-4147 (2005))
Forward (5′-[…]-3′) or reverse (5′-[…]-3′) primer was 5′-end labelled with ^32P by T4 polynucleotide kinase. Labelling mixture contained primer (5 pmol; Sigma-Genosys), 10× kinase buffer (1 μl; Promega), (γ-^32P)-ATP (2μ of 10 μCi/μl, 6000 Ci/mmol; Perkin Elmer Life Sciences), and T4 polynucleotide kinase (10 U; Promega) in a 10 μl final volume. Labelling mix was incubated at 37° C. for 30 minutes followed by inactivation of the kinase at 70° C. for 10 minutes. A 262 bp DNA fragment (MS2F or MS2R) was amplified from the MS2 plasmid using PCR with either labelled forward or reverse primer and the unlabelled primer as required. Reactions were comprised of labelled primer mix (10 μl), 10×PCR buffer (5 μl; Sigma), dNTPs (5 μl; 2.5 mM each of A, C, G and T, Amersham Pharmacia), unlabelled primer as required ([…]), MS2 plasmid template DNA (10 ng) and Taq DNA polymerase (5 U; Sigma) in a 50 μl final volume. Radiolabelled 262-mer was purified by non-denaturing polyacrylamide gel electrophoresis, elution, filtration and EtOH precipitation and was resuspended in a solution of Tris-HCl (10 mM) pH 7.4/NaCl (10 mM) to yield an activity of 200 counts per second per 5 μl when held up, in a pipette tip, to a capped Morgan series 900 mini-monitor.
For DNase I footprinting radiolabelled 262-mer (2 μl) was incubated overnight (16-18 h) with drug solution (388 μl) or in an aqueous buffer [HEPES (20 mM) pH 7.9, NaCl (50 mM), MgCl2 (1 mM), DTT (5 mM), 10% glycerol] in control reactions. Enzymatic cleavage was initiated by addition of DNase I solution (10 μl of 0.05 U/ml; Sigma) in aqueous NaCl (200 mM), MgCl2 (20 mM) and MnCl2 (20 mM) and halted with stop solution [40 μl of NaCl (2.25 M), EDTA (150 mM) pH 8.0, 0.57 μg/μl glycogen (0.57 μg/μl; Roche), poly(dl-dC).poly(dl-dC) DNA (19.3 ng/μl; Amersham Pharmacia)]. From this mixture, digested DNA fragments were prepared for electrophoresis following the protocol of Trauger & Dervan, and were loaded on to a preheated 8% denaturing polyacrylamide gel. Electrophoresis in 1×TBE buffer was allowed to proceed for 100 min at 70 W (1600-2000 V). The gel was the fixed in acetic acid (10% v/v) and methanol (10% v/v) for 15 minutes followed by being blotted onto Whatman 3 mM paper and vacuum-dried at 80° C. for 45 minutes.
Dried gels were stored at room temperature in phosphor storage screens (Molecular Dynamics) for a minimum period of 12 h. Data were collected from exposed screens using a Molecular Dynamics 425E Phosphorlmager and transferred to ImageQuant v1.2 software (Molecular Dynamics) for analysis. Data were expressed as the differential cleavage between control and sample lanes. Peaks were integrated and differential cleavage calculated as ln(fd)−ln(fc); (fd is the fractional cleavage at any particular bond in the presence of drug and fc is the fractional cleavage of the same bond in the control). Maxam-Gilbert G+A marker lanes were prepared in the usual fashion.
The vast majority of footprint sites are common features in the binding profiles of all six conjugates, with only a small number of sites being footprinted by a subset of the family. Even more unexpectedly, no site is footprinted by only one molecule (in fact, the fewest number of conjugates that bind at any single site is four). The differential cleavage plot provides footprinting profiles at a supramaximal concentration colour-coded for each conjugate which illustrates a striking degree of overlap. Although there is no conspicuous change in footprinting patterns as the number of pyrroles units in each conjugate increases, there are changes in two other features, namely, the apparent binding affinity and the width of the footprinted site. […]

[2] = system: K562 human chronic myeloid leukaemia cells; assay: In vitro cytotoxicity, MTT assay; format: cell-based; conditions: K562, 1 hour drug exposure, MTT after 4 days
Description: K562 human chronic myeloid leukaemia cells were maintained in RPM1 1640 medium supplemented with 10% fetal calf serum and 2 mM glutamine at 37° C. in a humidified atmosphere containing 5% CO2 and were incubated with a specified dose of drug for 1 hour at 37° C. in the dark. The incubation was terminated by centrifugation (5 min, 300 g) and the cells were washed once with drug-free medium. Following the appropriate drug treatment, the cells were transferred to 96-well microtiter plates (10^4 cells per well, 8 wells per sample). Plates were then kept in the dark at 37° C. in a humidified atmosphere containing 5% CO2. The assay is based on the ability of viable cells to reduce a yellow soluble tetrazolium salt, 3-(4,5-dimethylthiazol-2-yl)-2,5-diphenyl-2H-tetrazolium bromide (MTT, Aldrich-Sigma), to an insoluble purple formazan precipitate. Following incubation of the plates for 4 days (to allow control cells to increase in number by approximately 10 fold), 20 μL of MTT solution (5 mg/mL in phosphate-buffered saline) was added to each well and the plates further incubated for 5 hours. The plates were then centrifuged for 5 minutes at 300 g and the bulk of the medium pipetted from the cell pellet leaving 10-20 μL per well. DMSO (200 μL) was added to each well and the samples agitated to ensure complete mixing. The optical density was then read at a wavelength of 550 nm on a Titertek Multiscan ELISA plate reader, and a dose-response curve was constructed.

calf thymus DNA (CT-DNA) = assay: DNA thermal denaturation (melting) studies; format: binding; conditions: CT-DNA 100 μM DNAp, compound 20 μM, 37 °C; for Induced ΔTm after incubation 0 hours: pH 7.00, 0 hours; for Induced ΔTm after incubation 4 hours: pH 7.00, 4 hours; for Induced ΔTm after incubation 18 hours: pH 7.00, 18 hours
Description: The PBD agents were subjected to DNA thermal melting (denaturation) studies (Gregson, S. J., et al., Journal of Medicinal Chemistry, 44(5), 737-748 (2001); Jones, G. B., et al., Anti-Cancer Drug Design, 5(3), 249-264 (1990); McConnaughie, A. W. and; Jenkins, T. C. Journal of Medicinal Chemistry, 38(18), 3488-3501 (1995)) using calf thymus DNA (CT-DNA, type-1, highly polymerized sodium salt; 42% G+C [Sigma]) at a fixed 100 μM (DNAp=50 μM bp) concentration, determined using an extinction coefficient of 6600 (M phosphate)^−1 cm^−1 at 260 nm (Manzini, G., et al., Nucleic Acids Research, 11(24), 8861-8876 (1983)). Solutions were prepared in pH 7.00±0.01 aqueous buffer containing 10 mM NaH2PO4/Na2HPO4 and 1 mM EDTA. Working solutions containing CT-DNA and the test compound (20 μM) were incubated at 37.0±0.1° C. for 0 to 18 hours using an external water bath. Samples were monitored at 260 nm using a Varian-Cary 400 Bio spectrophotometer fitted with a Peltier heating accessory. Heating was applied at a rate of 1° C./min in the 45 to 98° C. temperature range, with optical and temperature data sampling at 200 ms intervals. A separate experiment was carried out using buffer alone, and this baseline was subtracted from each DNA melting curve before data treatment. Optical data were imported into the Origin 5 program (MicroCal Inc., Northampton, Mass.) for analysis. DNA helix→coil transition temperatures (Tm) were determined at the midpoint of the normalized melting profiles using a published analytical procedure (Jones, G. B., et al., Anti-Cancer Drug Design, 5(3), 249-264 (1990)). Results are given in table 1 as the mean±standard deviation from at least three determinations. Ligand-induced alterations in DNA melting behaviour (ΔTm) are given by ΔTm=Tm(DNA+ligand)−Tm(DNA), where the Tm value determined for free CT-DNA is 67.82±0.06° C. (averaged from >90 runs). All PBD compounds were dissolved in HPLC-grade MeOH to give working solutions containing ≦0.6% v/v MeOH; Tm results were corrected for the effects of MeOH co-solvent by using a linear correction term.
The above method was also carried out on the compounds of example 2, with all compounds being incubated for up to 72 hours.

[3] = system: 170 bp sequence of the human Topo-IIa promoter; assay: DNase I footprinting on Topo-IIa promoter (ICB1, ICB2 sites); format: binding
Description: In a similar manner to Example 4, the affinity and sequence selectivity of certain compounds of examples 1 and 2 was evaluated by standard DNA footprinting on a 170 bp sequence of the human Topo-IIa promoter, in accordance with the technique described in Martin, C., et al.
Selected results are shown in FIG. 9, wherein the concentrations of the lanes were 0, 1.6, 8, 40, 200, 1000, 5000 and 25000 nM in each case.
The footprinting results allowed the identification of compounds that could potentially disrupt transcription factor binding at the ICB1 and ICB2 sites. […] These compounds are detailed below in table 3, showing the concentrations (μM) at which the PBD-heterocycle conjugates bind at ICB1 and ICB2.

[4] = system: NF-Y binding at ICB2 of Topoisomerase IIα promoter; assay: NF-Y gel shift assay (EMSA) at ICB2
[5] = system: NF-Y binding at ICB1 of Topoisomerase IIα promoter; assay: NF-Y gel shift assay (EMSA) at ICB1
[6] = read-out: DNase IC50 (apparent binding affinity; 50% inhibition of DNase I-mediated cleavage), estimated by eye, site 5′-62CAATACACA70-3′

SMILES | IC50 ([1]; estimated by eye from footprint gel, read-out: DNase IC50 (apparent binding affinity)) [nM] | IC50 ([2]; Homo sapiens) [nM] | Induced ΔTm after incubation 0 hours (calf thymus DNA (CT-DNA)) [°C] | Induced ΔTm after incubation 4 hours (calf thymus DNA (CT-DNA)) [°C] | Induced ΔTm after incubation 18 hours (calf thymus DNA (CT-DNA)) | IC50 [1, 6] [nM] | IC50 [2] [nM] | Concentration at which DNA binding is observed, ICB1 ([3]; ICB1 site) [µM] | Concentration at which DNA binding is observed, ICB2 ([3]; ICB2 site) [µM] | Lowest concentration at which NF-Y binding inhibition was observed [4] [µM] | Lowest concentration at which NF-Y binding inhibition was observed [5] [µM] | Induced ΔTm after incubation 72 hours (calf thymus DNA (CT-DNA); pH 7.00, 72 hours) [°C]
COC(=O)c1cc(NC(=O)CCCOc2cc3c(cc2OC)C(=O)N2CCC[C@H]2C=N3)cn1C [Compound 21, (11aS) Methyl 4-[4-(7-methoxy-5-oxo-2,3,5,11a-tetrahydro-5H-pyrrolo[2,1-c][1,4]benzodiazepine-8-yloxy)-butyrylamino]-1-methyl-1H-pyrrole-2-carboxylate] | ≥ 10000 | 51 | 6.5 | 7.9 | 8.1 °C |  |  |  |  |  |  | 
COC(=O)c1cc(NC(=O)c2cc(NC(=O)c3cc(NC(=O)CCCOc4cc5c(cc4OC)C(=O)N4CCC[C@H]4C=N5)cn3C)cn2C)cn1C [Compound 25, (11aS) Methyl 4-{[4-({4-[4-(7-Methoxy-6-oxo-2,3,5,11a-tetrahydro-5H-pyrrolo[2,1-c][1,4]benzodiazepine-8-yloxy)-butyrylamino]-1-methyl-1H-pyrrole-2-carbonyl]-amino)-1-methyl-1H-pyrrole-2-carbonyl]-amino}-1-methyl-1H-pyrrole-2-carboxylate] |  |  | 17.3 | 19.6 | 21.2 °C | 30 to 100 | 41 |  |  |  |  | 
COC(=O)c1cc(NC(=O)c2cc(NC(=O)c3cc(NC(=O)c4cc(NC(=O)CCCOc5cc6c(cc5OC)C(=O)N5CCC[C@H]5C=N6)cn4C)cn3C)cn2C)cn1C [Compound 27, (11aS) Methyl 4-[(4-{[4-({4-[4-(7-Methoxy-5-oxo-2,3,5,11a-tetrahydro-5H-pyrrolo[2,1-c][1,4]benzodiazepine-8-yloxy)-butyrylamino]-1-methyl-1H-pyrrole-2-carbonyl]-amino)-1-methyl-1H-pyrrole-2-carbonyl]-amino}-1-methyl-1H-pyrrole-2-carbonyl)-amino]-1-methyl-1H-pyrrole-2-carboxylate] |  |  | 16.0 | 18.5 | 19.0^y ° C. | ~30 | 47 |  |  |  |  | 
COC(=O)c1cc(NC(=O)c2cc(NC(=O)c3cc(NC(=O)c4cc(NC(=O)c5cc(NC(=O)CCCOc6cc7c(cc6OC)C(=O)N6CCC[C@H]6C=N7)cn5C)cn4C)cn3C)cn2C)cn1C [Compound 29, (11aS) Methyl 4-({4-[(4-{[4-({4-[4-(7-Methoxy-5-oxo-2,3,5,11a-tetrahydro-5H-pyrrolo[2,1-c][1,4]benzodiazepine-8-yloxy)-butyrylamino]-1-methyl-1H-pyrrole-2-carbonyl]-amino)-1-methyl-1H-pyrrole-2-carbonyl]-amino}-1-methyl-1H-pyrrole-2-carbonyl)-amino]-1-methyl-1H-pyrrole-2-carbonyl}-amino)-1-methyl-1H-pyrrole-2-carboxylate] |  |  | 15.1 | 15.9 | 17.1 °C |  | 83 |  |  |  |  | 
COC(=O)c1cc(NC(=O)c2cc(NC(=O)c3nc(NC(=O)CCCOc4cc5c(cc4OC)C(=O)N4CCC[C@H]4C=N5)cn3C)cn2C)cn1C [Compound 67] |  |  | 19.1 | 19.8 | 21.1 °C |  |  | 5 | 1 | 5 | 50 | 21.6
